This is an account of results in article PMC7589021, “Setup and Validation of a Reliable Docking Protocol for the Development of Neuroprotective Agents by Targeting the Sigma-1 Receptor (S1R)” (International Journal of Molecular Sciences, 2020).

For orientation: melting point means the temperature, or range, at which the solid turns liquid. The term inhibition denotes how much of the control response was suppressed. Low readings indicate a response near the control, high ones a response far below the control. By IC50 is commonly meant the midpoint of a concentration-inhibition curve. The low end stands for inhibition by little substance, the high end for a need for much substance.

Structures are written as SMILES. Structures can show the parent of a compound that is named as a salt. Where two headings read alike, the source gives them in different places.

In data set [1] the target is T1, S1R (Cavia porcellus, UniProt Q60492). The data set is described as follows: S1R binding affinity of previously published compounds. The note with it: ln of experimental Ki S1R (nM), Table 1. From the text:
Table 1 Glide Gscores, calculated Ligand Efficiencies and experimentally determined Ki values of compounds 1–8 employed for the elaboration of the docking model. | column: ln(Ki)

Data set [2] addresses T1, S1R. In words: S1R radioligand binding assay ([3H](+)-pentazocine, guinea pig brain cortex membranes). More on the design: The thawed membrane preparation of guinea pig brain cortex; from tissue; host or cells: guinea pig brain (cerebral) cortex membranes.
For data set [3], the target named is T2, S2R (Rattus norvegicus, UniProt Q5U3Y7).
T2 construct: The assay was performed using 150 µg of rat liver homogenate; from tissue; host or cells: rat liver homogenate / membranes
T2 sequence (Q5U3Y7 1-176): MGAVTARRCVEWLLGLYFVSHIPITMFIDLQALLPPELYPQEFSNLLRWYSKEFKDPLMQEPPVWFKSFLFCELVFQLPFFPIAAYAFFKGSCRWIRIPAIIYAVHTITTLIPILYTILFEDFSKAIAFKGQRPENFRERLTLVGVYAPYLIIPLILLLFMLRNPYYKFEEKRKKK
In words: S2R radioligand binding assay ([3H]-DTG, rat liver membranes). The note with it: (+)-pentazocine to mask S1R.

Data set [4] deals with T3, GluN2 subunit of NMDA (GluN1a and GluN2B subunits) (Homo sapiens, UniProt Q05586+Q13224).
T3 construct: expressed in transfected cells; host or cells: L(tk-) cells, stably transfected
The data set is described as follows: GluN2 binding assay ([3H]-ifenprodil, membranes of transfected L(tk-) cells).

A further data set deals with AChE (Electrophorus electricus, UniProt O42275). In words: Inhibition of AChE, modified Ellman's method. The data set is classed as biochemical. The procedure:
To test the potential to inhibit AChE, a spectrophotometric procedure was adopted, based on the well-known Ellman’s method. Firstly, the target compound was tested at a concentration of 50 μM and a 72% of inhibition was observed.
AChE inhibitory activity of compound 12 was determined by the modified Ellman’s method. Briefly, a stock solution of tested compound (5.0 mM) was prepared in DMSO and diluted using 0.1 M KH2PO4/K2HPO4 buffer (pH 8.0) to afford a final concentration range between […]. Enzyme solutions were prepared by dissolving lyophilized powder in double-distilled water. […] The reaction was started by addition of […] of the 0.075 M substrate solution (acetylthiocholine iodide) and exactly 2 min after substrate addition, the absorption was measured at 25 °C at 412 nm. In enzyme-free assay systems the non-enzymatic hydrolysis of acetylthiocholine iodide was measured, and the results were employed as blank. […] Each experiment was performed in triplicate, and the mean ± standard deviation was calculated. Data from concentration-inhibition experiments of the inhibitors were calculated by nonlinear regression analysis, using the Excel program.
(In general: DTNB colorimetry detects thiols as they appear.)

In another data set the test system is HeLa cells. In words: Osmotic water permeability (AQP-mediated), stopped-flow light scattering. The data set is classed as cell-based. As to the method: Prompted by these encouraging results, we decided to draw the antioxidant profile of compound 12, since it is well-known that oxidative stress is connected with insurgence and exacerbation of neurodegenerative diseases. In particular, the AQP-mediated antioxidant properties of RC-33 (i.e., 1-[3-(1,1′-biphen)-4-yl]butylpiperidine, our in-house developed selective S1R agonist) and 12 were evaluated in HeLa cells, following the procedures reported in our most recent studies. Briefly, osmotic water permeability was measured by a stopped-flow light scattering method and expressed as percentage of k relative. Compounds RC-33 and 12 were tested at 20 µM whereas curcumin was used as control of the goodness of the cellular assay, since its capability to affect the AQPs permeability was assessed in our previous work. The compounds were initially assessed on non-stressed HeLa cells to evaluate the capability of the compounds to affect the AQPs permeability in absence of an oxidant stimuli. […] Conversely, curcumin directly affect AQPs resulting in a significative permeability reduction (75% of k relative). RC-33, 12 and curcumin were further assessed under oxidative stress conditions induced by heating the cell cultures. […] Thus, to probe the entanglement between S1R, AQP permeability and antioxidant protection, compound 12 was assessed against stressed HeLa cells in presence of NE-100, a well-known and fully characterized S1R antagonist.
Osmotic water permeability was measured in HeLa cells suspension by the stopped-flow light scattering method as previously described.
The antioxidant effect of compound 12 on water permeability HeLa cells were divided into different groups: (1) Controls, cells incubated at room temperature (21 °C); (2) heat-stressed cells, cells subjected to heat-treatment by incubating them in a water thermostatic and shacking bath at 42 °C for 3 h; (3) heat-stressed cells pre-treated, cells heat-stressed in the presence of the compound 12 at 20 µM final concentration (dissolved in methanol). Moreover, to test the possible capacity of the molecules to affect the AQP gating in normal condition, HeLa cells were treated in the presence and in the absence of the compounds by incubating at 21 °C for 3 h.

In data set [5] the target is T1, S1R. Further details: method as in PMID 30223122. The note with it: read-out: KiS1R; cited from earlier work.
For data set [6], the target named is S2R. More on the design: method as in PMID 30223122. The note with it: read-out: KiS2R; cited from earlier work.
[7] abbreviates: guinea pig cerebral cortex membranes, [3H]-(+)-pentazocine, read-out: Experimental Ki S1R (nM) ± SEM.
[8] abbreviates: ln of experimental Ki S1R (nM), read-out: Experimental Ki S1R (converted).
The mark [9] stands for this setting: Experimental Ki S1R (nM) ± SEM, guinea pig cerebral cortex membranes, [3H]-(+)-pentazocine.
The mark [10] stands for this setting: Experimental ln(Ki), ln of experimental Ki S1R (nM).
The mark [11] stands for this setting: heat-stressed HeLa cells (42 °C 3 h), pre-treated at 20 µM.
Setting [12] is: non-stressed HeLa cells, 21 °C 3 h, 20 µM.

T1 sequence (Q60492 whole entry): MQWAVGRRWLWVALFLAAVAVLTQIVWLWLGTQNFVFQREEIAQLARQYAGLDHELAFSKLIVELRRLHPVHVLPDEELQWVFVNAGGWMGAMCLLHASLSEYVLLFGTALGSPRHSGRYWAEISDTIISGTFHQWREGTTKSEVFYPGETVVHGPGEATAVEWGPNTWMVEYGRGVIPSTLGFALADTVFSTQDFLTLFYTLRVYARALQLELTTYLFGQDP
Chain of AChE (O42275 24-633): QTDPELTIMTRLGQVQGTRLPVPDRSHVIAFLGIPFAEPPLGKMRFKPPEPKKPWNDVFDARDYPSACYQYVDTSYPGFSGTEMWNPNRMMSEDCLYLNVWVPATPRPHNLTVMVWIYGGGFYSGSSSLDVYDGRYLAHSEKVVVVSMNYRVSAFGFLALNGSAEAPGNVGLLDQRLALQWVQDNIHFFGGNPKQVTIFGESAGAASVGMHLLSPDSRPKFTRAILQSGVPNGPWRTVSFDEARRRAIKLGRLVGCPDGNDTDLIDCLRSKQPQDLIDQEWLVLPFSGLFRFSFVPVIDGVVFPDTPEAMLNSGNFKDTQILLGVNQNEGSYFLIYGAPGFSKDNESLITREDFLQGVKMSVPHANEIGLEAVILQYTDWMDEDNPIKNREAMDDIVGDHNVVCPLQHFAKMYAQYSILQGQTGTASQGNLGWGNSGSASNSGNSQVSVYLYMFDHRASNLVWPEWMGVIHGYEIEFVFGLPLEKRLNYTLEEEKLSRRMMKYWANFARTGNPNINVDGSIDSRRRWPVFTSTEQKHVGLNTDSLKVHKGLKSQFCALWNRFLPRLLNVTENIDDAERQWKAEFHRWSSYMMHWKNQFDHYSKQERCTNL
T3 sequence (Q13224 27-1484, other chains not shown): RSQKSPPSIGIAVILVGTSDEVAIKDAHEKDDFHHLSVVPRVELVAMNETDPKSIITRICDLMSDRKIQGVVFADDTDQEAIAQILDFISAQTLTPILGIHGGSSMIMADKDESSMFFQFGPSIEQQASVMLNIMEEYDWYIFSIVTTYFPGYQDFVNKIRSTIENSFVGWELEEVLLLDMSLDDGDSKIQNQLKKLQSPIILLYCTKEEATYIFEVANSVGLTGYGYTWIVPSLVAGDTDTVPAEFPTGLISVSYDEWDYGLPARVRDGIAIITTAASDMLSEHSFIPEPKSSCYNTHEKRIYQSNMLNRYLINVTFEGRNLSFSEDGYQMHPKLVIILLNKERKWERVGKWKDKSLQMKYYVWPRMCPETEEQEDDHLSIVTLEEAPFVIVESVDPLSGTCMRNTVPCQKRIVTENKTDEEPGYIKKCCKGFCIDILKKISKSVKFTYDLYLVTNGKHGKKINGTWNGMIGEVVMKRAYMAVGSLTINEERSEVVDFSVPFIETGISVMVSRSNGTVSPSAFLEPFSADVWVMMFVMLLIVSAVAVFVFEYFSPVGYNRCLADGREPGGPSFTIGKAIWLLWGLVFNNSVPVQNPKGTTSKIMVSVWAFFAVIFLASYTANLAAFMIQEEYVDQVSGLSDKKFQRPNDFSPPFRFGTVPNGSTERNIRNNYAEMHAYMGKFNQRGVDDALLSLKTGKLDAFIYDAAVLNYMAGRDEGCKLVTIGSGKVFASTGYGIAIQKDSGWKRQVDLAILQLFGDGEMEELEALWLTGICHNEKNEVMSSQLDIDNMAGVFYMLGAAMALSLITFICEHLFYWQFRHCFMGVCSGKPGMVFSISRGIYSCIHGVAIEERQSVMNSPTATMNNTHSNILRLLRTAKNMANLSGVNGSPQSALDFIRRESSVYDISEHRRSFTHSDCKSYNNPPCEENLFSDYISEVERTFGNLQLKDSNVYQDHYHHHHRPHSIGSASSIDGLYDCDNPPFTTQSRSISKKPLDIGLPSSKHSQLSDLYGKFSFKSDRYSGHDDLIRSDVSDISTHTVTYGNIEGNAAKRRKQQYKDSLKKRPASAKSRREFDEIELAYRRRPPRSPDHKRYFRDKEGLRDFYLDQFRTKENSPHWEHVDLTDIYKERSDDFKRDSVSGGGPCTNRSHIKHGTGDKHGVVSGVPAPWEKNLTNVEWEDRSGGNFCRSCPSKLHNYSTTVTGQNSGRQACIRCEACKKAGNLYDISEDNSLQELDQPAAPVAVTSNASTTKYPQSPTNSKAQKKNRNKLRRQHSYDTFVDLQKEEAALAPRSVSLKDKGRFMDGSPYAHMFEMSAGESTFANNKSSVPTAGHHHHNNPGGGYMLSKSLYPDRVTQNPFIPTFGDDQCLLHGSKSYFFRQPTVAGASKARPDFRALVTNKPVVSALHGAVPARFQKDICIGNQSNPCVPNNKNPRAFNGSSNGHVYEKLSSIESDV

`O=C(CN1CCCCC1)c1ccc(-c2ccccc2)cc1` (as salt: hydrochloride) [Compound 8, 1-(2-([1,1’-biphenyl]-4-yl)-2-oxoethyl)piperidin-1-ium hydrochloride] returned a melting point of 236 to 238 °C.

Turning to `O=C(CN1CCCCC1)c1ccc(OCc2ccccc2)cc1` (as salt: hydrochloride) [Compound 9, 1-(2-(4-(benzyloxy)phenyl)-2-oxoethyl)piperidin-1-ium hydrochloride], the melting point was in the range of 86 to 88 °C.

`O=C(CCCN1CCCCC1)c1ccc(OCc2ccccc2)cc1` (as salt: hydrochloride) [Compound 13, 1-(4-(4-(benzyloxy)phenyl)-4-oxobutyl)piperidin-1-ium hydrochloride]: the melting point was in the range of 188 to 190 °C.

In the case of `O=C(CN1CCC(Cc2ccccc2)CC1)c1ccc2ccccc2c1` [Compound 1], the “ln(Ki)” value at S1R [1] amounted to 3.296.

Regarding `O=C(CCN1CCCCC1)c1ccc(-c2ccccc2)cc1` [Compound 2], the “ln(Ki)” value on S1R [1] stood at 2.708.

Take `O=C(CCN1CCCCC1)c1ccc2ccccc2c1` [Compound 3]: the “ln(Ki)” value on S1R [1] is 0.788.

For the molecule `O=C(CCN1CCOCC1)c1ccc(-c2ccccc2)cc1` [Compound 4], at S1R [1], the “ln(Ki)” value is 1.065.

Turning to `O=C(CCN1CCOCC1)c1ccc2ccccc2c1` [Compound 5], the “ln(Ki)” value on S1R [1] worked out at 2.197.

On to `O=C(CN1CCC(Cc2ccccc2)CC1)c1ccc(-c2ccccc2)cc1` [Compound 6], for which the “ln(Ki)” value at S1R [1] came to 5.829.

On to `O=C(CN1CCCCC1)c1ccc(-c2ccccc2)cc1` [Compound 8, 1-(2-([1,1’-biphenyl]-4-yl)-2-oxoethyl)piperidin-1-ium hydrochloride], for which the Ki was 132 ± 55 nM at S1R [2] (setting [7]) and 132 nM on S1R [2] (setting [8]).

Consider `O=C(CN1CCCCC1)c1ccc(OCc2ccccc2)cc1` [Compound 9, 1-(2-(4-(benzyloxy)phenyl)-2-oxoethyl)piperidin-1-ium hydrochloride], for which the Ki is 48 ± 12 nM at S1R [2] (setting [9]) and 48 nM at S1R [2] (setting [10]).

For the molecule `O=C(CCN1CCCCC1)c1ccc(OCc2ccccc2)cc1` [Compound 10, 1-(3-(4-(benzyloxy)phenyl)-3-oxopropyl)piperidin-1-ium hydrochloride], the Ki on S1R [2] (setting [7]) is 25 ± 7 nM; on S1R [2] (setting [8]) it was 25 nM.

With `O=C(CCCN1CCCCC1)c1ccc2ccccc2c1` [Compound 11, 1-(4-(naphthalen-2-yl)-4-oxobutyl)piperidin-1-ium hydrochloride], the Ki at S2R [3] is 50 nM; on S1R [2] (setting [7]) it was 4.4 ± 2.4 nM; on S1R [2] (setting [8]), 4.4 nM.

As for `O=C(CCCN1CCCCC1)c1ccc(-c2ccccc2)cc1` [Compound 12, 1-(4-([1,1’-biphenyl]-4-yl)-4-oxobutyl)piperidin-1-ium hydrochloride], the Ki was 200 nM in data set [4], 33 ± 14 nM on S1R [2] (setting [9]) and 33 nM on S1R [2] (setting [10]). At AChE (50 μM), this molecule showed an inhibition at 50 µM of 72%. In addition, the IC50 against AChE (Ellman's method) is 680 ± 90 nM. Besides, the “osmotic water permeability, percent of k relative” value in the data set on HeLa cells (setting [11]) is listed as “able to prevent the water permeability reduction”; in the data set with HeLa cells (setting [12]) it was “did not affect the water permeability”.

Take `O=C(CCCN1CCCCC1)c1ccc(OCc2ccccc2)cc1` [Compound 13, 1-(4-(4-(benzyloxy)phenyl)-4-oxobutyl)piperidin-1-ium hydrochloride]: the Ki on S1R [2] (setting [7]) was 87 ± 28 nM; on S1R [2] (setting [8]) it was 87 nM.

`CCCN(CCC)CCc1ccc(OC)c(OCCc2ccccc2)c1` [NE-100]: in the data set on HeLa cells (setting [11]), the “osmotic water permeability, percent of k relative” value is 78 % of k relative.

As to `CC(CCN1CCCCC1)c1ccc(-c2ccccc2)cc1` (stereo not shown) [RC-33, 1-[3-(1,1′-biphen)-4-yl]butylpiperidine], the figures for the “osmotic water permeability, percent of k relative” value in the data set with HeLa cells (setting [11]) and in the data set with HeLa cells (setting [12]) were “able to prevent the water permeability reduction” and “comparable”, respectively. Moreover, the figures for the Ki at S1R [5] and at S2R [6] were 1.8 ± 0.1 nM and 45 ± 16 nM, respectively.

For `COc1cc(/C=C/C(=O)CC(=O)/C=C/c2ccc(O)c(OC)c2)ccc1O` [curcumin], the results for the “osmotic water permeability, percent of k relative” value in the data set with HeLa cells (setting [11]) and with HeLa cells (setting [12]) were “not able to protect the AQPs’ permeability properties” and 75 % of k relative, respectively.
